The target of the test is T1, human topoisomerase IIα (Homo sapiens, UniProt P11388).
T1 construct: gene TOP2A; recombinant wild-type, expressed in Saccharomyces cerevisiae and purified
Briefly: DNA cleavage assay, pBR322, agarose gel. The test is classed as biochemical. The settings on record: single-stranded and double-stranded DNA break induction; 300 nM enzyme, 25 mM MgCl2, 500 mM KCl, pH 7.9, 37 °C, 10 min.

T1 sequence (P11388 whole entry): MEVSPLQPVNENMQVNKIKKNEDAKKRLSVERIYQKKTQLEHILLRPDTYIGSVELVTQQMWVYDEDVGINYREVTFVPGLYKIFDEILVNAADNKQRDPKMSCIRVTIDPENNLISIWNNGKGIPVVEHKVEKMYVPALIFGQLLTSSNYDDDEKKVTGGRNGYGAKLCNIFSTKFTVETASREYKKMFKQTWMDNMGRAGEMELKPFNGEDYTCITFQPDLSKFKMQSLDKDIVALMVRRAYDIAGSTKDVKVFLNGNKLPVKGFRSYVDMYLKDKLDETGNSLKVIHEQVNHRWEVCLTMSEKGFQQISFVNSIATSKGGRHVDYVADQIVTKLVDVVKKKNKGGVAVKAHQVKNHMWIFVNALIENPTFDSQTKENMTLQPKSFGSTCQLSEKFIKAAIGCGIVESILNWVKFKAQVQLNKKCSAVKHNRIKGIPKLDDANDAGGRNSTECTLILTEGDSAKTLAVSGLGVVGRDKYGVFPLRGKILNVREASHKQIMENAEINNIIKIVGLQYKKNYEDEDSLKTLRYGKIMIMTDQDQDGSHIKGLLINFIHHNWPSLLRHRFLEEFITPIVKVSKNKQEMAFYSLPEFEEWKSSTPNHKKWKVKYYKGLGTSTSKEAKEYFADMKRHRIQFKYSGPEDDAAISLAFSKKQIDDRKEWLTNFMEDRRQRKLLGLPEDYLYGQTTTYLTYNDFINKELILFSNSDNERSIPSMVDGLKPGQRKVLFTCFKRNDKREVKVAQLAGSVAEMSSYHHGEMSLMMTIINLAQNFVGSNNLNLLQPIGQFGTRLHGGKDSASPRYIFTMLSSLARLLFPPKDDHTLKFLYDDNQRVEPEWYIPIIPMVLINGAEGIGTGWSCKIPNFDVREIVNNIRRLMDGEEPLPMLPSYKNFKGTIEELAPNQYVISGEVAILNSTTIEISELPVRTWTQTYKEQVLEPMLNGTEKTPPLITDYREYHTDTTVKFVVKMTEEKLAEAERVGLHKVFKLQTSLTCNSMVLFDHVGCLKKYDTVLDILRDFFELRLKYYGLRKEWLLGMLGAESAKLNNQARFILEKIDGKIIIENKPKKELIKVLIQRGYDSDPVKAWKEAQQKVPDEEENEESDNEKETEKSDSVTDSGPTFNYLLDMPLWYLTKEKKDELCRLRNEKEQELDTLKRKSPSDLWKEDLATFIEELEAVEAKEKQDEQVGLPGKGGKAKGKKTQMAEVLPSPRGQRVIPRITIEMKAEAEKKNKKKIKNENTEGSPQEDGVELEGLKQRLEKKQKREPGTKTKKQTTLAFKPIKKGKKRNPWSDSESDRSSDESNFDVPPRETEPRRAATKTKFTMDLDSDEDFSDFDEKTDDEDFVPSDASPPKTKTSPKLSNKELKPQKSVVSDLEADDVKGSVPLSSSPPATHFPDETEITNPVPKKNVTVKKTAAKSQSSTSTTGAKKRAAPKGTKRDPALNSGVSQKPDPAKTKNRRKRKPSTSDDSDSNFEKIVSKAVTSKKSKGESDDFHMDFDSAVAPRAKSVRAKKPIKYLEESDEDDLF

For `COc1ccc2nccc(CC[C@H]3OC[C@H](NC(=O)c4ccc5c(c4)NC(=O)CO5)CO3)c2c1` [OSUAB-185], the CC50 result is given as “reasonable activity against the human type II enzyme, with CC50 values in the low µM”.
